Measurements published in PubChem BioAssay (NCI).
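Tested at 5 concentrations; 48 h exposure; 96-well plates; endpoints linearly interpolated, else capped at highest concentration. The concentration for 50% growth inhibition is given as GI50. TGI marks complete inhibition of growth.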

How the values were obtained:
Assay in all cases: DTP human tumour cell line panel, 48 h
CCRF-CEM leukemia = test system: CCRF-CEM leukemia
SN12C renal = test system: SN12C renal
PC-3 prostate = test system: PC-3 prostate
SR leukemia = test system: SR leukemia
UACC-257 melanoma = test system: UACC-257 melanoma
K-562 leukemia = test system: K-562 leukemia
MDA-MB-231 breast = test system: MDA-MB-231 breast
SK-MEL-28 melanoma = test system: SK-MEL-28 melanoma
SK-OV-3 ovarian = test system: SK-OV-3 ovarian
HS 578T breast = test system: HS 578T breast
OVCAR-3 ovarian = test system: OVCAR-3 ovarian
LOX IMVI melanoma = test system: LOX IMVI melanoma
MDA-MB-435 = test system: MDA-MB-435
ACHN renal = test system: ACHN renal
786-0 renal = test system: 786-0 renal
A549 NSCLC = test system: A549 NSCLC
OVCAR-5 ovarian = test system: OVCAR-5 ovarian
NCI-H23 lung = test system: NCI-H23 lung
OVCAR-4 ovarian = test system: OVCAR-4 ovarian
DU-145 prostate = test system: DU-145 prostate
U251 CNS = test system: U251 CNS
HL-60(TB) leukemia = test system: HL-60(TB) leukemia
RXF 393 renal = test system: RXF 393 renal
IGROV1 ovarian = test system: IGROV1 ovarian
MCF7 breast = test system: MCF7 breast
M14 melanoma = test system: M14 melanoma
SF-539 CNS = test system: SF-539 CNS
NCI-H522 lung = test system: NCI-H522 lung
MALME-3M melanoma = test system: MALME-3M melanoma
HT29 colon = test system: HT29 colon
NCI-H226 lung = test system: NCI-H226 lung
HCC-2998 colon = test system: HCC-2998 colon
SNB-19 CNS = test system: SNB-19 CNS
HCT-116 colon = test system: HCT-116 colon
MOLT-4 leukemia = test system: MOLT-4 leukemia
CAKI-1 renal = test system: CAKI-1 renal
TK-10 renal = test system: TK-10 renal
SF-268 CNS = test system: SF-268 CNS
SK-MEL-5 melanoma = test system: SK-MEL-5 melanoma
UO-31 renal = test system: UO-31 renal
A498 renal = test system: A498 renal
BT-549 breast = test system: BT-549 breast
HOP-62 NSCLC = test system: HOP-62 NSCLC
KM12 colon = test system: KM12 colon
UACC-62 melanoma = test system: UACC-62 melanoma
T-47D breast = test system: T-47D breast
NCI/ADR-RES ovarian = test system: NCI/ADR-RES ovarian
SF-295 CNS = test system: SF-295 CNS
OVCAR-8 ovarian = test system: OVCAR-8 ovarian
SK-MEL-2 melanoma = test system: SK-MEL-2 melanoma
HCT-15 colon = test system: HCT-15 colon
SNB-75 CNS = test system: SNB-75 CNS
EKVX NSCLC = test system: EKVX NSCLC
NCI-H460 lung = test system: NCI-H460 lung
COLO 205 colon = test system: COLO 205 colon
SW-620 colon = test system: SW-620 colon

For `Oc1ccc(/C=C/c2ccc(O)cc2)cc1`, the GI50 (CCRF-CEM leukemia) was 0.219 µM, the TGI (CCRF-CEM leukemia) was 0.761 µM and the GI50 (SN12C renal) was 2.97 µM. For the same molecule, the TGI (SN12C renal) was > 100 µM, the GI50 (PC-3 prostate) was 4.02 µM and the TGI (PC-3 prostate) was > 100 µM. For the same molecule, the GI50 (SR leukemia) was 0.204 µM, the TGI (SR leukemia) was 0.703 µM and the GI50 (UACC-257 melanoma) was 18.6 µM. For the same molecule, the TGI (UACC-257 melanoma) was > 100 µM, the GI50 (K-562 leukemia) was 2.65 µM and the TGI (K-562 leukemia) was > 100 µM. The GI50 (MDA-MB-231 breast) was 2.78 µM, the TGI (MDA-MB-231 breast) was > 100 µM and the GI50 (SK-MEL-28 melanoma) was 30.1 µM. For the same molecule, the TGI (SK-MEL-28 melanoma) was > 100 µM, the GI50 (SK-OV-3 ovarian) was 16.1 µM and the TGI (SK-OV-3 ovarian) was > 100 µM. The GI50 (HS 578T breast) was 4.09 µM, the TGI (HS 578T breast) was > 83.9 µM and the GI50 (OVCAR-3 ovarian) was 0.971 µM. For the same molecule, the TGI (OVCAR-3 ovarian) was > 92.1 µM, the GI50 (LOX IMVI melanoma) was 2.85 µM and the TGI (LOX IMVI melanoma) was 20.4 µM. The GI50 (MDA-MB-435) was 6.64 µM, the TGI (MDA-MB-435) was > 100 µM and the GI50 (ACHN renal) was 1.25 µM. The TGI (ACHN renal) was > 61.7 µM, the GI50 (786-0 renal) was 2.17 µM and the TGI (786-0 renal) was 7.93 µM. The GI50 (A549 NSCLC) was 2.69 µM, the TGI (A549 NSCLC) was > 38.5 µM and the GI50 (OVCAR-5 ovarian) was 28.9 µM. For the same molecule, the TGI (OVCAR-5 ovarian) was > 100 µM, the GI50 (NCI-H23 lung) was 3.82 µM and the TGI (NCI-H23 lung) was > 90.5 µM. For the same molecule, the GI50 (OVCAR-4 ovarian) was 8.78 µM, the TGI (OVCAR-4 ovarian) was > 100 µM and the GI50 (DU-145 prostate) was 3.84 µM. For the same molecule, the TGI (DU-145 prostate) was 44 µM, the GI50 (U251 CNS) was 3.09 µM and the TGI (U251 CNS) was > 100 µM. The GI50 (HL-60(TB) leukemia) was 0.252 µM, the TGI (HL-60(TB) leukemia) was 0.738 µM and the GI50 (RXF 393 renal) was 2.94 µM. For the same molecule, the TGI (RXF 393 renal) was > 100 µM, the GI50 (IGROV1 ovarian) was 0.72 µM and the GI50 (MCF7 breast) was 4.41 µM. For the same molecule, the TGI (MCF7 breast) was > 100 µM, the GI50 (M14 melanoma) was 3.82 µM and the TGI (M14 melanoma) was 58.9 µM. The GI50 (SF-539 CNS) was 2.45 µM, the TGI (SF-539 CNS) was 8.8 µM and the GI50 (NCI-H522 lung) was 0.465 µM. The TGI (NCI-H522 lung) was 1.71 µM, the GI50 (MALME-3M melanoma) was 18.1 µM and the TGI (MALME-3M melanoma) was > 100 µM. For the same molecule, the GI50 (HT29 colon) was 29 µM, the TGI (HT29 colon) was > 100 µM and the GI50 (NCI-H226 lung) was 5.63 µM. For the same molecule, the TGI (NCI-H226 lung) was > 100 µM, the GI50 (HCC-2998 colon) was 3.59 µM and the TGI (HCC-2998 colon) was 18 µM. The GI50 (SNB-19 CNS) was 18.2 µM, the TGI (SNB-19 CNS) was > 100 µM and the GI50 (HCT-116 colon) was 4.28 µM. For the same molecule, the TGI (HCT-116 colon) was > 100 µM, the GI50 (MOLT-4 leukemia) was 2.18 µM and the TGI (MOLT-4 leukemia) was 45.1 µM. The GI50 (CAKI-1 renal) was 3.5 µM, the TGI (CAKI-1 renal) was > 24.1 µM and the GI50 (TK-10 renal) was 9.62 µM. The TGI (TK-10 renal) was > 100 µM, the GI50 (SF-268 CNS) was 2.15 µM and the TGI (SF-268 CNS) was > 94.7 µM. For the same molecule, the GI50 (SK-MEL-5 melanoma) was 3.04 µM, the TGI (SK-MEL-5 melanoma) was > 68.3 µM and the GI50 (UO-31 renal) was 1.38 µM. For the same molecule, the TGI (UO-31 renal) was > 100 µM, the GI50 (A498 renal) was 10.3 µM and the TGI (A498 renal) was 99.6 µM. The GI50 (BT-549 breast) was 1.26 µM, the TGI (BT-549 breast) was > 90 µM and the GI50 (HOP-62 NSCLC) was 5.59 µM. The TGI (HOP-62 NSCLC) was > 96.5 µM, the GI50 (KM12 colon) was 2.73 µM and the TGI (KM12 colon) was > 80.7 µM. The GI50 (UACC-62 melanoma) was 2.36 µM, the TGI (UACC-62 melanoma) was 16.9 µM and the GI50 (T-47D breast) was 5.7 µM. The TGI (T-47D breast) was > 100 µM, the GI50 (NCI/ADR-RES ovarian) was 3.25 µM and the TGI (NCI/ADR-RES ovarian) was > 95.4 µM. The GI50 (SF-295 CNS) was 5.91 µM, the TGI (SF-295 CNS) was > 84.7 µM and the GI50 (OVCAR-8 ovarian) was 2.44 µM. For the same molecule, the TGI (OVCAR-8 ovarian) was > 61.1 µM, the GI50 (SK-MEL-2 melanoma) was 9.79 µM and the TGI (SK-MEL-2 melanoma) was > 89.2 µM. The GI50 (HCT-15 colon) was 3.13 µM, the TGI (HCT-15 colon) was > 100 µM and the GI50 (SNB-75 CNS) was 1.89 µM. The TGI (SNB-75 CNS) was > 100 µM, the GI50 (EKVX NSCLC) was 9.15 µM and the TGI (EKVX NSCLC) was > 100 µM. For the same molecule, the GI50 (NCI-H460 lung) was 3.37 µM, the TGI (NCI-H460 lung) was > 100 µM and the GI50 (COLO 205 colon) was > 55.1 µM. For the same molecule, the TGI (COLO 205 colon) was > 100 µM, the GI50 (SW-620 colon) was 7.52 µM and the TGI (SW-620 colon) was > 100 µM.
